Data from ChEMBL document CHEMBL1153641, “Diaminocyclobutenediones as potent and orally bioavailable CXCR2 receptor antagonists: SAR in the phenolic amide region” (Bioorg Med Chem Lett, 2009).

Key:
[1] = target: T1, C-X-C chemokine receptor type 2 (Homo sapiens, UniProt P25025)
T1 sequence (P25025 whole entry): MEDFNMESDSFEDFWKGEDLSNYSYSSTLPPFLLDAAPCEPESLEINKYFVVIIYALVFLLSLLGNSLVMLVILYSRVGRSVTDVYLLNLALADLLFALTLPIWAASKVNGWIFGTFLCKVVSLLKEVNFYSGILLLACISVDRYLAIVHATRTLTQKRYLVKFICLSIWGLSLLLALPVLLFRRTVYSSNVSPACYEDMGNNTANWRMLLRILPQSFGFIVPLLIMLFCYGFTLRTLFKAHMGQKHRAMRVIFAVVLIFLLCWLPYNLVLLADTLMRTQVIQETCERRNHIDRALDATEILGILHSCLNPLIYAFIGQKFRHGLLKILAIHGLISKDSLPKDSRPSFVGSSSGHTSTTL
Description: Displacement of human [125I]IL-8 from human CXCR2

[2] = AUC in rat at 10 mg/kg, po; assay type: ADME, organism-based; set-up: dose 10 mg/kg, route oral; conditions: plasma
[3] = target: T2, C-X-C chemokine receptor type 1 (Homo sapiens, UniProt P25024)
T2 sequence (P25024 whole entry): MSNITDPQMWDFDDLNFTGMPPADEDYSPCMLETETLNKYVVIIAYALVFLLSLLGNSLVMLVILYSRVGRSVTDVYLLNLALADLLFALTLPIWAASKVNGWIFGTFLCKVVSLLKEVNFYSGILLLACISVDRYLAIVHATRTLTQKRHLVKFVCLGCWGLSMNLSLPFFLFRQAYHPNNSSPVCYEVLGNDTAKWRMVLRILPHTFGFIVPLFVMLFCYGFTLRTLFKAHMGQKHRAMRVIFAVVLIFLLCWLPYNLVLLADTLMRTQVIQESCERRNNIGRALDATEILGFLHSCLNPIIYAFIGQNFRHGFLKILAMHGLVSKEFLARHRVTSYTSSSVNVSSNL
Description: Displacement of human [125I]IL-8 from human CXCR1

SMILES	Ki [1]	AUC [2]	Ki [3]
CC[C@@H](Nc1c(Nc2cccc(C(=O)N(C)C)c2O)c(=O)c1=O)c1cccs1	5 nM	2.5 µM·h	210 nM
CC[C@@H](Nc1c(Nc2cccc(C(=O)N3CCN(C(=O)c4ccccn4)CC3)c2O)c(=O)c1=O)c1ccccc1	20 nM	–	–
CC[C@@H](Nc1c(Nc2ccc(-c3ccccn3)c(C(=O)N(C)C)c2O)c(=O)c1=O)c1ccccc1	15 nM	–	> 1000 nM
CC[C@@H](Nc1c(Nc2cc(Cl)cc(C(=O)N(C)C)c2O)c(=O)c1=O)c1cccs1	50 nM	2.2 µM·h	1220 nM
CC[C@@H](Nc1c(Nc2cc(C)cc(C(=O)N(C)C)c2O)c(=O)c1=O)c1cccs1	76 nM	–	2800 nM
CC[C@@H](Nc1c(Nc2ccccc2O)c(=O)c1=O)c1ccc(C)o1	22 nM	–	–
CC[C@@H](Nc1c(Nc2cccc(C(=O)N3CC[C@H](O)C3)c2O)c(=O)c1=O)c1ccccc1	18 nM	–	21 nM
CC[C@@H](Nc1c(Nc2cccc(C(=O)N3CC[C@H](CO)C3)c2O)c(=O)c1=O)c1ccccc1	20 nM	0.44 µM·h	–
CC[C@@H](Nc1c(Nc2cccc(C(=O)N3CCCC3C(=O)O)c2O)c(=O)c1=O)c1ccccc1 (stereo partly specified)	5 nM	–	30 nM
CC[C@@H](Nc1c(Nc2ccc(-c3ccccc3)c(C(=O)N(C)C)c2O)c(=O)c1=O)c1ccccc1	17 nM	–	–
CC[C@@H](Nc1c(N2CCOc3c(C(=O)N(C)C)cccc32)c(=O)c1=O)c1ccccc1	> 270 nM	–	–
CC[C@@H](Nc1c(Nc2cccc(C(=O)N3CC(O)C3)c2O)c(=O)c1=O)c1ccccc1	20 nM	0.5 µM·h	–
CC[C@@H](Nc1c(Nc2cccc(C(=O)N3CCN(C)CC3)c2O)c(=O)c1=O)c1ccccc1	12 nM	–	41 nM
CC[C@@H](Nc1c(Nc2cccc(C(=O)O)c2O)c(=O)c1=O)c1ccc(C)o1	12 nM	–	–
CC[C@@H](Nc1c(Nc2cccc(C(=O)N3CCN(C(C)=O)CC3)c2O)c(=O)c1=O)c1ccccc1	27 nM	–	–
CC[C@@H](Nc1c(Nc2cc(Br)cc(C(=O)N(C)C)c2O)c(=O)c1=O)c1cccs1	61 nM	1.4 µM·h	2070 nM
CC[C@@H](Nc1c(Nc2cccc(C(=O)N3CCOCC3)c2O)c(=O)c1=O)c1ccccc1	10 nM	–	–
CC[C@@H](Nc1c(Nc2cc(C#N)cc(C(=O)N(C)C)c2O)c(=O)c1=O)c1cccs1	5 nM	–	54 nM
CC[C@@H](Nc1c(Nc2cccc(C(=O)N3CCCC3)c2O)c(=O)c1=O)c1ccccc1	9 nM	1 µM·h	–
CC[C@H](c1ccccc1)N(C)c1c(N(C)c2cccc(C(=O)N(C)C)c2O)c(=O)c1=O	> 270 nM	–	–

More lines, now with the values ahead:

Ki [1]	AUC [2]	Ki [3]	SMILES
4.4 nM	17.4 µM·h	–	CC[C@@H](Nc1c(Nc2cccc(C(=O)N(C)C)c2O)c(=O)c1=O)c1ccccc1
> 2000 nM	–	–	CC[C@@H](Nc1c(Nc2cc(-c3ccccc3)cc(C(=O)N(C)C)c2O)c(=O)c1=O)c1ccccc1
> 270 nM	–	–	CC[C@H](c1ccccc1)N(C)c1c(Nc2cccc(C(=O)N(C)C)c2O)c(=O)c1=O
4 nM	0.06 µM·h	–	CC[C@@H](Nc1c(Nc2ccc(Br)c(C(=O)N(C)C)c2O)c(=O)c1=O)c1ccccc1
25 nM	2.2 µM·h	–	CC[C@@H](Nc1c(Nc2cccc(C(N)=O)c2O)c(=O)c1=O)c1ccccc1
3 nM	–	–	CC[C@@H](Nc1c(Nc2cc(C#N)cc(C(=O)N(C)C)c2O)c(=O)c1=O)c1ccccc1
11 nM	1.4 µM·h	123 nM	CC[C@@H](Nc1c(Nc2cccc(C(=O)N(C)C(C)C)c2O)c(=O)c1=O)c1ccccc1
4.5 nM	2.3 µM·h	381 nM	CC[C@@H](Nc1c(Nc2c(C)ccc(C(=O)N(C)C)c2O)c(=O)c1=O)c1ccccc1
219 nM	–	–	CC[C@@H](Nc1c(Nc2cccc(C(=O)NC(C)C)c2O)c(=O)c1=O)c1ccccc1
28 nM	0.4 µM·h	–	CC[C@@H](Nc1c(Nc2cccc(C(=O)NC)c2O)c(=O)c1=O)c1ccccc1
203 nM	–	–	CC[C@@H](Nc1c(Nc2cc(C)cc(C(=O)N(C)C)c2O)c(=O)c1=O)c1ccccc1
34 nM	–	–	CC[C@@H](Nc1c(Nc2cccc(C(=O)NC3CC3)c2O)c(=O)c1=O)c1ccccc1
> 270 nM	–	–	CC[C@@H](Nc1c(Nc2cccc(C(=O)N(C)C)c2OC)c(=O)c1=O)c1ccccc1
